Where two headings read alike, the source gives them in different places.
Test system: HCC 1806 cells
Test: Cell proliferation inhibitory effect on human breast cancer cell line (crystal violet, 72 hours)
Type: cell-based
Details: read-out: Cell growth suppression IC50
Description: Human derived breast cancer cell line HCC 1806 cells were daily passaged at a cell density not exceeding 80% in ATCC recommended Roswell Park Memorial Institute medium (RPMI-1640) containing 10% fetal bovine serum (FBS). In order to start the test of cell proliferation inhibitory activity, HCC 1806 cells were suspended in the above medium, after seeing at 180 μL in each well of a 96-well flat bottom plate so that the number of cells per well was 2,000, the cells were cultured at 37° C. for 1 day in an incubator containing 5% carbon dioxide gas. On the next day, the test compound was dissolved in DMSO, and 20 μL of a drug additive solution diluted serially with distilled water to 10 times of the final concentration was added to each well of the culture plate of the cells, and the cells were cultured at 37° C. for 72 hours in an incubator containing 5% carbon dioxide gas. After culturing for 72 hours, 20 μL of glutaraldehyde was added to each well and allowed to stand for 30 minutes, then the plate was washed 10 times with water and was dried. 100 μL of a stain solution (0.05% crystal violet in a 20% methanol solution) was added to each well and allowed to stand for 30 minutes, then the plate was washed 10 times with water and was dried. 100 μL of an extract solution (0.1 N NaH2PO4: 100% ethanol=1:1) was added to each well and mixed, and the mixture was measured at a wavelength of 540 nm using a plate reader (MTP-450 manufactured by Corona Electric Co., Ltd.). The growth inhibition rate was calculated from the following formula, and the concentration (IC50 (μM)) of a test compound inhibiting 50% was determined. Growth inhibition rate (%)={(C−B)−(T−B)}/(C−B)×100
T: Absorbance of well to which test compound was added
C: Absorbance of wells to which no test compound was added
B: Absorbance of wells to which no cell suspension was added

SMILES | IC50 (Homo sapiens, HCC1806, 72 h) [µM] | IC50 [µM]
C[C@H](c1c(F)ccc2ccccc12)[C@H](NS(=O)(=O)c1ccc(Cl)c2c1OCCC2F)c1n[nH]c(=O)o1 (mixture of isomers) [Example 292, 5-chloro-4-fluoro-N-((1S,2R)-2-(2-fluoronaphthalen-1-yl)-1-(5-oxo-4,5-dihydro-1,3,4-oxadiazol-2-yl)propyl)chroman-8-sulfonamide] | 0.75 | –
Cc1c(Cl)ccc(F)c1[C@@H](C)[C@H](NS(=O)(=O)c1ccc(Cl)c2c1OCCC2(C)N)c1n[nH]c(=O)o1 (mixture of isomers) [Example 328, 4-amino-5-chloro-N-((1S,2R)-2-(3-chloro-6-fluoro-2-methylphenyl)-1-(5-oxo-4,5-dihydro-1,3,4-oxadiazol-2-yl)propyl)-4-methylchroman-8-sulfonamide] | 0.41 | –
[2H]C([2H])([2H])C1(O)CCOc2c(S(=O)(=O)N[C@H](c3n[nH]c(=O)o3)[C@H](C)c3c(F)ccc(C)c3C)ccc(Cl)c21 (single isomer, unassigned) [Example 200B] | – | 0.46
Cc1ccc(F)c([C@@H](C)[C@H](NS(=O)(=O)c2ccc(Cl)c3c2OCCC3(C)O)c2n[nH]c(=O)o2)c1C (single isomer, unassigned) [Example 207A] | – | 0.07
Cc1ccc(F)c([C@@H](C)[C@H](NS(=O)(=O)c2ccc(Cl)c3c2OCCC3(C)O)c2n[nH]c(=O)o2)c1C (single isomer, unassigned) [Example 207B] | – | 0.25
COc1c(S(=O)(=O)N[C@H](c2n[nH]c(=O)o2)[C@H](C)c2c(F)ccc(C)c2C)ccc(Cl)c1C(C)O (single isomer, unassigned) [Example 208A] | – | 0.33
COc1c(S(=O)(=O)N[C@H](c2n[nH]c(=O)o2)[C@H](C)c2c(F)ccc(C)c2C)ccc(Cl)c1C(C)O (single isomer, unassigned) [Example 208B] | – | 0.05
Cc1c(Cl)ccc(F)c1[C@@H](C)[C@H](NS(=O)(=O)c1ccc(Cl)c2c1OCCC2(C)O)c1n[nH]c(=O)o1 (single isomer, unassigned) [Example 209B] | – | 0.82
Cc1ccc(F)c([C@@H](C)[C@H](NS(=O)(=O)c2ccc(Cl)c3c2OCCC3(O)C(F)(F)F)c2n[nH]c(=O)o2)c1C (single isomer, unassigned) [Example 220A] | 0.37 | –
Cc1ccc(F)c([C@@H](C)[C@H](NS(=O)(=O)c2ccc(Cl)c3c2OCCC3(O)C(F)(F)F)c2n[nH]c(=O)o2)c1C (single isomer, unassigned) [Example 220B] | – | 0.5
Cc1c(Br)ccc(F)c1[C@@H](C)[C@H](NS(=O)(=O)c1ccc(Cl)c2c1OCCC2(C)O)c1n[nH]c(=O)o1 (single isomer, unassigned) [Example 222B] | – | 0.67
Cc1ccc(F)c([C@@H](C)[C@H](NS(=O)(=O)c2ccc(F)c3c2OCCC3(C)O)c2n[nH]c(=O)o2)c1C (single isomer, unassigned) [Example 224A] | 0.1 | –
Cc1ccc(F)c([C@@H](C)[C@H](NS(=O)(=O)c2ccc(F)c3c2OCCC3(C)O)c2n[nH]c(=O)o2)c1C (single isomer, unassigned) [Example 224B] | 0.77 | –
[2H]C([2H])([2H])C1(O)CCOc2c(S(=O)(=O)N[C@H](c3n[nH]c(=O)o3)[C@H](C)c3c(F)ccc(Br)c3C)ccc(Cl)c21 (single isomer, unassigned) [Example 226A] | – | 0.08
[2H]C([2H])([2H])C1(O)CCOc2c(S(=O)(=O)N[C@H](c3n[nH]c(=O)o3)[C@H](C)c3c(F)ccc(Br)c3C)ccc(Cl)c21 (single isomer, unassigned) [Example 226B] | – | 0.3
Cc1c(Br)ccc(F)c1[C@@H](C)[C@H](NS(=O)(=O)c1ccc(F)c2c1OCCC2(C)O)c1n[nH]c(=O)o1 (single isomer, unassigned) [Example 227A] | 0.19 | –
Cc1c(Cl)ccc(F)c1[C@@H](C)[C@H](NS(=O)(=O)c1ccc(F)c2c1OCCC2(C)O)c1n[nH]c(=O)o1 (single isomer, unassigned) [Example 229A] | 0.31 | –
Cc1ccc(F)c([C@@H](C)[C@H](NS(=O)(=O)c2ccc(F)c3c2OCCC3O)c2n[nH]c(=O)o2)c1C (single isomer, unassigned) [Example 230A] | – | 0.29

SMILES | IC50 (Homo sapiens, HCC1806, 72 h) [µM] | IC50 [µM]
Cc1ccc(F)c([C@@H](C)[C@H](NS(=O)(=O)c2ccc(F)c3c2OCCC3O)c2n[nH]c(=O)o2)c1C (single isomer, unassigned) [Example 230B] | – | 0.78
C[C@H](c1c(F)ccc2ccccc12)[C@H](NS(=O)(=O)c1ccc(Cl)c2c1OCCC2O)c1n[nH]c(=O)o1 (single isomer, unassigned) [Example 234A] | 0.57 | –
Cc1ccc(F)c([C@@H](C)[C@H](NS(=O)(=O)c2ccc(Cl)c3c2OCCC3O)c2n[nH]c(=O)o2)c1C (single isomer, unassigned) [Example 235B] | – | 0.4
Cc1c(Cl)ccc(F)c1[C@@H](C)[C@H](NS(=O)(=O)c1ccc(Cl)c2c1OCCC2O)c1n[nH]c(=O)o1 (single isomer, unassigned) [Example 238A] | 0.44 | –
CCc1ccc(F)c([C@@H](C)[C@H](NS(=O)(=O)c2ccc(Cl)c3c2OCCC3O)c2n[nH]c(=O)o2)c1C (single isomer, unassigned) [Example 239A] | 0.72 | –
Cc1c(Br)ccc(F)c1[C@@H](C)[C@H](NS(=O)(=O)c1ccc(Cl)c2c1OCCC2O)c1n[nH]c(=O)o1 (single isomer, unassigned) [Example 243A] | – | 0.29
Cc1c(Br)ccc(F)c1[C@@H](C)[C@H](NS(=O)(=O)c1ccc(Cl)c2c1OCCC2O)c1n[nH]c(=O)o1 (single isomer, unassigned) [Example 243B] | – | 0.7
Cc1ccc(F)c([C@@H](C)[C@H](NS(=O)(=O)c2ccc(C(F)(F)F)c3c2OCCC3O)c2n[nH]c(=O)o2)c1C (single isomer, unassigned) [Example 244A] | 0.72 | –
Cc1c(Cl)ccc(F)c1[C@@H](C)[C@H](NS(=O)(=O)c1ccc(Cl)c2c1OCCC2(C)N)c1n[nH]c(=O)o1 (single isomer, unassigned) [Example 330A] | 0.24 | –
C[C@H](c1c(F)ccc2ccccc12)[C@H](NS(=O)(=O)c1ccc(Cl)cc1C(N)=O)c1n[nH]c(=O)o1 [Example 6, 5-chloro-2-(N-((1S,2R)-2-(2-fluoronaphthalen-1-yl)-1-(5-oxo-4,5-dihydro-1,3,4-oxadiazol-2-yl)propyl)sulfamoyl)benzamide] | 0.29 | –
Cc1ccc(S(=O)(=O)N[C@H](c2n[nH]c(=O)o2)[C@H](C)c2c(F)ccc(C)c2C)c(C(N)=O)c1 [Example 10, 2-(N-((1S,2R)-2-(3-6-fluoro-2,3-dimethylphenyl)-1-(5-oxo-4,5-dihydro-1,3,4-oxadiazol-2-yl)propyl)sulfamoyl)-5-methylbenzamide] | 0.56 | –
Cc1ccc(S(=O)(=O)N[C@H](c2n[nH]c(=O)o2)[C@H](C)c2c(F)ccc3ccccc23)c(C(N)=O)c1 [Example 12, 2-(N-((1S,2R)-2-(2-Fluoronaphthalen-1-yl)-1-(5-oxo-4,5-dihydro-1,3,4-oxadiazol-2-yl)propyl)sulfamoyl)-5-methylbenzamide] | 0.5 | –
Cc1cc(F)c(F)c([C@@H](C)[C@H](NS(=O)(=O)c2ccc(Cl)cc2C(N)=O)c2n[nH]c(=O)o2)c1C [Example 13, 5-chloro-2-(N-((1S,2R)-2-(2,3-difluoro-5,6-dimethylphenyl)-1-(5-oxo-4,5-dihydro-1,3,4-oxadiazol-2-yl)propyl)sulfamoyl)benzamide] | 0.31 | –
C[C@H](c1c(F)ccc2ccccc12)[C@H](NS(=O)(=O)c1ccc(Br)cc1C(N)=O)c1n[nH]c(=O)o1 [Example 15, 5-bromo-2-(N-((1S,2R)-2-(2-fluoronaphthalen-1-yl)-1-(5-oxo-4,5-dihydro-1,3,4-oxadiazol-2-yl)propyl)sulfamoyl)benzamide] | 0.4 | –
CCc1ccc(S(=O)(=O)N[C@H](c2n[nH]c(=O)o2)[C@H](C)c2c(F)ccc(C)c2C)c(C(N)=O)c1 [Example 18, 5-Ethyl-2-(N-((1S,2R)-2-(6-fluoro-2,3-dimethylphenyl)-1-(5-oxo-4,5-dihydro-1,3,4-oxadiazol-2-yl)propyl)sulfamoyl)benzamide] | 0.58 | –
Cc1ccc(F)c([C@@H](C)[C@H](NS(=O)(=O)c2ccc(Cl)nc2C(N)=O)c2n[nH]c(=O)o2)c1C [Example 19, 6-Chloro-3-(N-((1S,2R)-2-(6-fluoro-2,3-dimethylphenyl)-1-(5-oxo-4,5-dihydro-1,3,4-oxadiazol-2-yl)propyl)sulfamoyl)picolinamide] | 0.94 | –
Cc1c(Cl)ccc(F)c1[C@@H](C)[C@H](NS(=O)(=O)c1ccc(Br)cc1C(N)=O)c1n[nH]c(=O)o1 [Example 25, 5-bromo-2-(N-((1S,2R)-2-(3-chloro-6-fluoro 2 methylphenyl)-1-(5-oxo-4,5-dihydro-1,3,4-oxadiazol-2-yl)propyl)sulfamoyl)benzamide] | 0.59 | –
